Assay results: publication PMC11279465, “Dual Inhibitors of P-gp and Carbonic Anhydrase XII (hCA XII) against Tumor Multidrug Resistance with Piperazine Scaffold” (Molecules, 2024)
Values joined by “and” are separate entries in the source; they are usually repeats but may differ in a detail not shown here. Equal values may be shown once.

Columns and labels:
hCA I = molecular target: T1, hCA I (Homo sapiens, UniProt P00915); assay: CA inhibition, stopped-flow CO2 hydrase assay; assay type: biochemical; conditions: stopped-flow technique; incubation time 6 h; mean of 3 assays
T1 construct: made in house
T1 sequence (P00915 whole entry): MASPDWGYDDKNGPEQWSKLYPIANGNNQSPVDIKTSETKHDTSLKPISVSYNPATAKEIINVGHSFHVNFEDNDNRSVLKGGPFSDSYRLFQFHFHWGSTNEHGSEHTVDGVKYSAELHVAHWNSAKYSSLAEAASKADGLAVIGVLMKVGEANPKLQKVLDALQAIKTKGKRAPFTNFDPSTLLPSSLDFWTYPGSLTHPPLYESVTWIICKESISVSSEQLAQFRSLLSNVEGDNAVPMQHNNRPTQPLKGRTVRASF
Description: (§1) Four hCA isoforms were used in this assay: the cytosolic hCA I and II and the tumor-associated transmembrane hCA IX and XII isoforms. Acetazolamide (AAZ) was used as a standard inhibitor.
(§2) An SX.18MV-R Applied Photophysics (Oxford, UK) stopped-flow instrument has been used to assay the catalytic/inhibition of various CA isozymes. […] Saturated CO2 solutions in water at 25 °C were used as substrate. Stock solutions of inhibitors were prepared at a concentration of 10 μM (in DMSO-water 1:1, v/v) and dilutions up to 0.01 nM were carried out with the assay buffer mentioned above. […] Inhibitor and enzyme solutions were preincubated together for 6 h at room temperature prior to assay in order to allow for the formation of the E-I complex. […] The inhibition constants were obtained by non-linear least-squares methods using the Cheng–Prusoff equation, as reported earlier, and represent the mean from at least three different determinations.

hCA II = molecular target: T2, hCA II (Homo sapiens, UniProt P00918); assay: CA inhibition, stopped-flow CO2 hydrase assay; assay type: biochemical; conditions: stopped-flow technique; incubation time 6 h; mean of 3 assays
T2 construct: made in house
Description: as §1, §2

hCA IX = molecular target: T3, hCA IX (Homo sapiens, UniProt Q16790); assay: CA inhibition, stopped-flow CO2 hydrase assay; assay type: biochemical; conditions: stopped-flow technique; incubation time 6 h; mean of 3 assays
T3 construct: made in house
Description: as §1, §2

hCA XII = molecular target: T4, hCA XII (Homo sapiens, UniProt O43570); assay: CA inhibition, stopped-flow CO2 hydrase assay; assay type: biochemical; conditions: stopped-flow technique; incubation time 6 h; mean of 3 assays
T4 construct: made in house
T4 sequence (O43570 25-354): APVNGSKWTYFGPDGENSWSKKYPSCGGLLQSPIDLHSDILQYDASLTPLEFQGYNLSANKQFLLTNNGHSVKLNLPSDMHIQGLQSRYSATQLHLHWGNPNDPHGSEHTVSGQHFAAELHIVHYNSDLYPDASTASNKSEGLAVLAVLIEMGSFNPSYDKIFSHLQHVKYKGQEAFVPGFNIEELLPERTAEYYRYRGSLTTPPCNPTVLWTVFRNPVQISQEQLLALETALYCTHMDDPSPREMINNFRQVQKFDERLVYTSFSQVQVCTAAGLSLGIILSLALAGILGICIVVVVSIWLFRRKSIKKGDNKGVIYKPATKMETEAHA
Description: as §1, §2

K562/DOX cells [1] = assay: Doxorubicin cytotoxicity enhancement assay (MTT); assay type: cell-based, human; conditions: 72 h
Description: K562 is a highly undifferentiated erythroleukemia cell line. The doxorubicin-resistant K562/DOX cells overexpress almost exclusively the transporter membrane protein P-gp.
K562/DOX cells were incubated for 72 h with different concentrations of doxorubicin in combination with 1 or 3 µM of all compounds. […] HT29, A549, HT29/DOX and A549/DOX cells were incubated for 48 h with 5 µM doxorubicin, alone or in combination with 1 or 3 µM of selected compounds. Cell viability of the cell lines was measured by the MTT assay, using a Synergy HT microplate spectrofluorometer (Bio-Tek Instruments, Winooski, VT, USA). The absorbance of untreated cells was considered 100%; results were expressed as a percentage of viable treated cells versus the control untreated cells.

K562/DOX cells [2] = assay: Intrinsic cytotoxicity (MTT); assay type: cell-based, human; conditions: compound alone at 3 µM, 72 h
Description: Compounds were first studied at 1 and 3 µM concentrations to evaluate their intrinsic cytotoxicity in both the parental K562 and the resistant K562/DOX cell lines, using the MTT assay. All compounds had no intrinsic cytotoxicity in the parental line.
(§3) The intrinsic toxicity of the studied compounds was determined by an MTT assay. K562 and K562/DOX were exposed for 72 h with compounds at 1 and 3 µM concentrations while HT29, A549, HT29/DOX and A549/DOX cells were incubated for 48 h with compounds used at different concentrations (from 10 nM to 50 µM). The percentage of growth compared to the untreated control was transformed into histograms with the GraphPad Prism 5 program.

A549/DOX cells [3] = assay: Intrinsic cytotoxicity (MTT); assay type: cell-based, human; conditions: compound alone at 1 µM; A549/DOX; 48 h
Description: (§4) All compounds were preliminarily studied to evaluate their intrinsic cytotoxicity at different concentrations (from 10 nM to 50 µM) in the parental HT29 and A549 and the resistant HT29/DOX and A549/DOX cells using the MTT assay.
as §3, with “program. […]” for “program.”

HT29/DOX cells [4] = assay: Intrinsic cytotoxicity (MTT); assay type: cell-based, human; conditions: compound alone at 1 µM; HT29/DOX; 48 h
Description: as §4
as §3, with “program. […]” for “program.”

A549/DOX cells [5] = assay: Doxorubicin co-administration assay (MTT); assay type: cell-based, human; conditions: compound at 3 µM + doxorubicin 5 µM, 48 h
Description: (§5) These compounds were then assayed at 1 and 3 µM concentrations in co-administration with doxorubicin at a concentration of 5 µM, which is known to discriminate well between sensitive and resistant cells. […] Moreover, in the A549/DOX cell line, the co-administration of 1, 2, 4–6, 14 and 19, tested at 3 µM, led to the highest enhancement of doxorubicin toxicity reaching a reduction of nearly 55.0% in cell viability.
(§6) K562/DOX cells were incubated for 72 h with different concentrations of doxorubicin in combination with 1 or 3 µM of all compounds. IC50 was the concentration killing 50% of cells and was determined graphically from relative survival curves obtained by GraphPad Prism 5 software (GraphPad, San Diego, CA, USA). HT29, A549, HT29/DOX and A549/DOX cells were incubated for 48 h with 5 µM doxorubicin, alone or in combination with 1 or 3 µM of selected compounds. Cell viability of the cell lines was measured by the MTT assay, using a Synergy HT microplate spectrofluorometer (Bio-Tek Instruments, Winooski, VT, USA). The absorbance of untreated cells was considered 100%; results were expressed as a percentage of viable treated cells versus the control untreated cells.

HT29/DOX cells [6] = assay: Doxorubicin co-administration assay (MTT); assay type: cell-based, human; conditions: compound at 3 µM + doxorubicin 5 µM, 48 h
Description: as §5, §6

A549/DOX cells [7] = assay: Intracellular doxorubicin accumulation; assay type: cell-based, human; conditions: compound at 3 µM + doxorubicin 5 µM, 24 h, vs doxorubicin alone
Description: (§7) Furthermore, we evaluated the intracellular accumulation of 5 µM doxorubicin in HT29/DOX and A549/DOX cells alone and in the presence of derivatives 1, 2, 4–6, 14, 19 and 33, studied at 1 and 3 µM. This test allowed us to investigate if the reduced viability measured in the co-administration assay was due to different retention of the anticancer drug within the cells. In the parental HT29 and A549 cell lines, we measured a greater amount of intracellular doxorubicin compared to their resistant counterparts, which was not enhanced by our selected compounds (Supplementary Materials, Figure S7). However, in HT29/DOX and A549/DOX cells, derivatives 1, 2, 4–6, 14, 19 and 33 were able to increase the intracellular retention of the anticancer drug, in a dose-dependent way. […]
(§8) Intracellular doxorubicin was measured in 10,000 cells seeded into 96-well plates and incubated for 24 h with 5 µM doxorubicin with or without 1 µM and 3 µM of each compound. The intracellular drug content was measured fluorimetrically as detailed previously using a Synergy HTX 96-well plate reader. The results were expressed as nmol doxorubicin/mg cell proteins based on the titration curve previously prepared.

HT29/DOX cells [8] = assay: Intracellular doxorubicin accumulation; assay type: cell-based, human; conditions: compound at 3 µM + doxorubicin 5 µM, 24 h, vs doxorubicin alone
Description: as §7, §8

P-gp = P-gp (Homo sapiens, UniProt P08183); assay: Calcein-AM transport inhibition in MDCK-MDR1 cells; assay type: cell-based; set-up: expressed in transfected cells; host or cells: MDCK (Madin-Darby Canine Kidney); conditions: mean ± SEM
Chain of P-gp (P08183 whole entry): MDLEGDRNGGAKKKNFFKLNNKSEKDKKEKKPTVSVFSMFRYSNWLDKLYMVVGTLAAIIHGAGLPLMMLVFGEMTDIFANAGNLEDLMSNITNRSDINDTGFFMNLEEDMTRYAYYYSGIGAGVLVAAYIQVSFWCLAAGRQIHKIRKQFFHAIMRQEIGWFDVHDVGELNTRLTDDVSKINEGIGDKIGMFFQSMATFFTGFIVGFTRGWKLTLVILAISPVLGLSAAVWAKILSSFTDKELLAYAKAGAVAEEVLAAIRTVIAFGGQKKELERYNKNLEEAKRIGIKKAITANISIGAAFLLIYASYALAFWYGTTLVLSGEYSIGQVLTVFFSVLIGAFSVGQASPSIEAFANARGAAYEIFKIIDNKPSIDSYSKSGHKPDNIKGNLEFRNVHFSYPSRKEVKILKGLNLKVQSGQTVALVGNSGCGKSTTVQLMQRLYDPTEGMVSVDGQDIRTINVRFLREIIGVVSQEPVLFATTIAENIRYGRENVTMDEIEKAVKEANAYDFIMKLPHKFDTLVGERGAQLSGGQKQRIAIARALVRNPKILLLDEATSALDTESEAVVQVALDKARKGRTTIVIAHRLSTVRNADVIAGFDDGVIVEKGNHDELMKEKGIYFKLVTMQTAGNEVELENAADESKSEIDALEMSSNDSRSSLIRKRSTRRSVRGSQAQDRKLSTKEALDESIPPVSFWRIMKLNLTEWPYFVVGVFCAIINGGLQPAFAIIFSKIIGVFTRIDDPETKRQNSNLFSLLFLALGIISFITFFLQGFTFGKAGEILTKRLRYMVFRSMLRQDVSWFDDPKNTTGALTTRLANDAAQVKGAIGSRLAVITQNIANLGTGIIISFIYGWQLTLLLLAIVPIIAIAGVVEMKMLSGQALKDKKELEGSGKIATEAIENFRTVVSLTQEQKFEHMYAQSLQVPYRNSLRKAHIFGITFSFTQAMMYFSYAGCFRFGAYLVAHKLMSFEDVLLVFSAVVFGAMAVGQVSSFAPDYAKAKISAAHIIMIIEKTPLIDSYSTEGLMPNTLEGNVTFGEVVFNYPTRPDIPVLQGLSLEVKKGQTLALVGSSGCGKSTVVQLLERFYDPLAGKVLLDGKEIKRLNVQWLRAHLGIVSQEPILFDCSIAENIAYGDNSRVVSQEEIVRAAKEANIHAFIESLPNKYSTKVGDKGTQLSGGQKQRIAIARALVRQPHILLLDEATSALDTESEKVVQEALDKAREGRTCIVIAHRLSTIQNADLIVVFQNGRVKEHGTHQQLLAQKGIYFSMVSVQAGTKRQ
From the text: The MDR interaction potency of these compounds was studied by detecting the inhibition of the P-gp-, MRP1- or BCRP-mediated efflux of a substrate in cells overexpressing the studied pumps. In detail, we measured the following: (i) the transport inhibition of the profluorescent probe calcein-AM (P-gp and MRP1 substrate) in MDCK-MDR1 and MDCK-MRP1 cells (P-gp- and MRP1-overexpressing cells, respectively); (ii) the transport inhibition of the fluorescent probe Hoechst 33342 (BCRP substrate) in MDCK-BCRP cells (BCRP-overexpressing cells).
Experiments were performed as previously described. MDCK-MDR1 and MDCK-MRP1 cells (30,000 cells per well) were seeded in a 96-well black CulturePlate in 100 µL of medium and allowed to grow overnight in a humidified atmosphere of 5% CO2 at 37 °C. Tested compounds (100 µL) in a final concentration ranging between 0.01 nM and 100 µM, solubilized in culture medium, were added to the monolayers. After 30 min in a humidified atmosphere of 5% CO2 at 37 °C, 100 µL of Calcein-AM in phosphate-buffered saline (PBS) was added to obtain a final concentration of 2.5 µM and the plate was incubated for 30 min. All wells were washed 3 times with 100 µL ice-cold PBS and read with Victor3 (PerkinElmer) after adding 100 µL of cold PBS. Excitation and emission wavelengths of 485 nm and 535 nm, respectively, were used. In these experimental conditions, cell Calcein-AM accumulation in the absence and in the presence of each tested compound was evaluated and compared to the basal level of fluorescence derived from untreated cells. The increase in fluorescence from the baseline level was measured in the treated wells. EC50 values were determined by fitting the rate of fluorescence increase versus log[dose].

Ki (hCA I) | Ki (hCA II) | Ki (hCA IX) | Ki (hCA XII) | Structure (SMILES) | RF (Reversal Fold: IC50 of doxorubicin alone / in presence of modulator) (K562/DOX cells [1]; compound at 1 µM) | reduction of cellular viability (K562/DOX cells [2]) | toxicity (A549/DOX cells [3]) | toxicity (HT29/DOX cells [4]) | reduction in cell viability (A549/DOX cells [5]) | reduction in cell viability (HT29/DOX cells [6]) | greater accumulation of doxorubicin (A549/DOX cells [7]) | greater accumulation of doxorubicin (HT29/DOX cells [8]) | EC50 (P-gp) | RF (Reversal Fold: IC50 of doxorubicin alone / in presence of modulator) (K562/DOX cells [1]; compound at 3 µM)
> 10000 nM | > 10000 nM | 113 nM | 84.7 nM | COc1ccc(C(CCCN2CCN(CCOc3ccc4ccc(=O)oc4c3)CC2)c2ccc(OC)cc2)cc1 [Compound 25, 7-(2-(4-(4,4-Bis(4-methoxyphenyl)butyl)piperazin-1-yl)ethoxy)-2H-chromen-2-one] | 5.9 | 30–50% | ≥ 35% | ≥ 35% |  |  |  |  |  | 
> 10000 nM | > 10000 nM | 51 nM | 29.5 nM | COc1cc(/C=C/CN2CCN(CCOc3ccc4oc(=O)ccc4c3)CC2)cc(OC)c1OC [Compound 7, (E)-6-(2-(4-(3-(3,4,5-Trimethoxyphenyl)allyl)piperazin-1-yl)ethoxy)-2H-chromen-2-one] | 1 and 1.1 | 30–50% |  |  |  |  |  |  |  | 1

Structure (SMILES) | Ki (hCA I) | Ki (hCA II) | Ki (hCA IX) | Ki (hCA XII) | RF (Reversal Fold: IC50 of doxorubicin alone / in presence of modulator) (K562/DOX cells [1]; compound at 1 µM) | reduction of cellular viability (K562/DOX cells [2]) | toxicity (A549/DOX cells [3]) | toxicity (HT29/DOX cells [4]) | reduction in cell viability (A549/DOX cells [5]) | reduction in cell viability (HT29/DOX cells [6]) | greater accumulation of doxorubicin (A549/DOX cells [7]) | greater accumulation of doxorubicin (HT29/DOX cells [8]) | EC50 (P-gp) | RF (Reversal Fold: IC50 of doxorubicin alone / in presence of modulator) (K562/DOX cells [1]; compound at 3 µM)
COc1ccc(C(CCCN2CCN(CCCCOc3ccc4oc(=O)ccc4c3)CC2)c2ccc(OC)cc2)cc1 [Compound 33, 6-(4-(4-(4,4-Bis(4-methoxyphenyl)butyl)piperazin-1-yl)butoxy)-2H-chromen-2-one] | > 10000 nM | > 10000 nM | 74.6 nM | 46.8 nM | 9.9 |  |  |  | 62.6% | 67.6% | 4 fold | 3 fold | 3020 ± 90 nM | 
